Results: patent US20240108737A1, “ANTI-INFECTIVE BICYCLIC PEPTIDE LIGANDS” (priority 2021, published 2024)
*1 amine or outer side, *2 acyl side, *3 side chain or, on linkers, in order; H or OH if unused. Where a SMILES comes first, the peptide text is derived from it. Bridges are numbered along the chain shown (N, C = ends). Roman numbers before positions name the chains, in order. [ ]: non-standard residue; d: D form. X1 = O=C(CCOCCOCCOCCOCCOCCOCCOCCOCCOCCOCCOCCOCCOCCOCCOCCOCCOCCOCCOCCOCCOCCOCCOCCOCCn1cc(CCC(=O)[*:2])nn1)[*:1]; TATB = O=C(C[*:1])N1CN(C(=O)C[*:2])CN(C(=O)C[*:3])C1; X2 = C(c1nc(C[*:2])nc(C[*:3])n1)[*:1]; hArg = N=C(N)NCCCC[C@H](N)C(=O)O; tBuAla = CC(C)(C)C[C@H](N)C(=O)O

System: SARS-CoV-2 pseudotyped HIV-1 virions, D614G

**Q.** How did the IC50 turn out when `CC(=O)N[C@H]1CSCC(=O)N2CN3CN(C2)C(=O)CSC[C@H](NC(=O)[C@H](C(C)C)NC(=O)[C@@H]2CCCN2C(=O)[C@H](CC(N)=O)NC(=O)[C@H](CC(=O)O)NC(=O)[C@@H]2CCCN2C(=O)[C@H](CC(N)=O)NC(=O)[C@H](C)NC1=O)C(=O)N[C@@H](CCCNC(=N)N)C(=O)N[C@@H](Cc1ccccc1)C(=O)N[C@@H](Cc1ccc(O)cc1)C(=O)N[C@H](C(=O)N[C@@H](CCCCNC(=O)CCOCCOCCOCCOCCOCCOCCOCCOCCOCCOCCOCCOCCOCCOCCOCCOCCOCCOCCOCCOCCOCCOCCOCCOCCn1cc(CCC(=O)NCCCC[C@H](NC(=O)[C@@H]2CSCc4nc5nc(n4)CSC[C@H](NC(C)=O)C(=O)N4CCC[C@H]4C(=O)N[C@@H](Cc4ccc(O)cc4)C(=O)N[C@@H](C(C)C)C(=O)N[C@@H](C)C(=O)NCC(=O)N[C@@H](CCCCNC(=N)N)C(=O)N[C@H](C)C(=O)N[C@@H]([C@@H](C)O)C(=O)N[C@@H](CSC5)C(=O)N[C@@H](CC(C)C)C(=O)N[C@@H](CC(C)(C)C)C(=O)N2)C(N)=O)nn1)C(N)=O)CSCC3=O` [BCY18786] (I: Ac-CANPDNPVCRFYCK-NH2 / II: Ac-CPYVAG[hArg][dA]TCL[tBuAla]CK-NH2; linker I:1-I:9-I:13 via TATB; linker I:14-II:14 via X1; linker II:1-II:10-II:13 via X2) was run?
**A.** 20 nM
